In ChEMBL document CHEMBL1201862, “PubChem BioAssay data set” (2004):
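Dose response: 5 concentrations. Exposure: 48 h. Format: 96-well plates. Endpoint: linear interpolation; highest concentration if not reached. GI50 = concentration required for 50% inhibition of growth.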 Calls of active or inactive are those of the source. Cut-off read from the data, not from the text of the source: active = GI50 up to about 1.1 µM and inactive = higher.

Tests used:
Test in all cases: NCI anticancer screen, dose series, 48 h
CCRF-CEM = tested on: CCRF-CEM
SK-MEL-28 = tested on: SK-MEL-28
HCC 2998 = tested on: HCC 2998
NCI-H226 = tested on: NCI-H226
DU-145 = tested on: DU-145
SK-MEL-5 = tested on: SK-MEL-5
A549 = tested on: A549
TK-10 = tested on: TK-10
PC-3 = tested on: PC-3
K562 = tested on: K562
RXF 393 = tested on: RXF 393
OVCAR-4 = tested on: OVCAR-4
NCI-H522 = tested on: NCI-H522
SK-OV-3 = tested on: SK-OV-3
HOP-92 = tested on: HOP-92
SNB-19 = tested on: SNB-19
CAKI-1 = tested on: CAKI-1
IGROV-1 = tested on: IGROV-1
SK-MEL-2 = tested on: SK-MEL-2
SR = tested on: SR
ACHN = tested on: ACHN
UACC-257 = tested on: UACC-257
A498 = tested on: A498
EKVX = tested on: EKVX
MDA-MB-435 = tested on: MDA-MB-435
Malme-3M = tested on: Malme-3M
UACC-62 = tested on: UACC-62
Hs-578T = tested on: Hs-578T
MOLT-4 = tested on: MOLT-4
HT-29 = tested on: HT-29
M14 = tested on: M14
OVCAR-8 = tested on: OVCAR-8
MDA-N = tested on: MDA-N
HCT-116 = tested on: HCT-116
MDA-MB-231 = tested on: MDA-MB-231
SF-268 = tested on: SF-268
NCI/ADR-RES = tested on: NCI/ADR-RES
HCT-15 = tested on: HCT-15
NCI-H460 = tested on: NCI-H460
U-251 = tested on: U-251
786-0 = tested on: 786-0
MCF7 = tested on: MCF7
T47D = tested on: T47D
NCI-H23 = tested on: NCI-H23
SF-295 = tested on: SF-295
SW-620 = tested on: SW-620
KM12 = tested on: KM12
SNB-75 = tested on: SNB-75
BT-549 = tested on: BT-549
SN12C = tested on: SN12C
OVCAR-5 = tested on: OVCAR-5
SF-539 = tested on: SF-539
RPMI-8226 = tested on: RPMI-8226
COLO 205 = tested on: COLO 205
HOP-62 = tested on: HOP-62
OVCAR-3 = tested on: OVCAR-3
UO-31 = tested on: UO-31
HL-60 = tested on: HL-60
LOX IMVI = tested on: LOX IMVI

C[C@H](NC1=C(Cl)C(=O)c2c(O)ccc(O)c2C1=O)C(=O)Nc1ccc([N+](=O)[O-])cc1
GI50 (CCRF-CEM): 0.305 µM (active)
GI50 (SK-MEL-28): 2.03 µM (inactive)
GI50 (HCC 2998): 3.33 µM (inactive)
GI50 (NCI-H226): 1.91 µM (inactive)
GI50 (DU-145): 1.82 µM (inactive)
GI50 (SK-MEL-5): 1.76 µM (inactive)
GI50 (A549): 1.71 µM (inactive)
GI50 (TK-10): 1.95 µM (inactive)
GI50 (PC-3): 3.41 µM (inactive)
GI50 (K562): 10 µM (inactive)
GI50 (RXF 393): 1.56 µM (inactive)
GI50 (OVCAR-4): 1.73 µM (inactive)
GI50 (NCI-H522): 2.9 µM (inactive)
GI50 (SK-OV-3): 6.89 µM (inactive)
GI50 (HOP-92): 2.08 µM (inactive)
GI50 (SNB-19): 3.06 µM (inactive)
GI50 (CAKI-1): 4.13 µM (inactive)
GI50 (IGROV-1): 2.5 µM (inactive)
GI50 (SK-MEL-2): 3.52 µM (inactive)
GI50 (SR): 2.47 µM (inactive)
GI50 (ACHN): 2.94 µM (inactive)
GI50 (UACC-257): 1.95 µM (inactive)
GI50 (A498): 2.39 µM (inactive)
GI50 (EKVX): 4.93 µM (inactive)
GI50 (MDA-MB-435): 1.57 µM (inactive)
GI50 (Malme-3M): 1.19 µM (inactive)
GI50 (UACC-62): 2.4 µM (inactive)
GI50 (Hs-578T): 4.57 µM (inactive)
GI50 (MOLT-4): 10 µM (inactive)
GI50 (HT-29): 2.62 µM (inactive)
GI50 (M14): 1.25 µM (inactive)
GI50 (OVCAR-8): 2.37 µM (inactive)
GI50 (MDA-N): 2.4 µM (inactive)
GI50 (HCT-116): 1.41 µM (inactive)
GI50 (MDA-MB-231): 1.91 µM (inactive)
GI50 (SF-268): 2.16 µM (inactive)
GI50 (NCI/ADR-RES): 1.81 µM (inactive)
GI50 (HCT-15): 1.93 µM
GI50 (NCI-H460): 2.06 µM (inactive)
GI50 (U-251): 2.58 µM (inactive)
GI50 (786-0): 1.6 µM (inactive)
GI50 (MCF7): 1.75 µM (inactive)
GI50 (T47D): 3.25 µM (inactive)
GI50 (NCI-H23): 2.02 µM (inactive)
GI50 (SF-295): 1.89 µM (inactive)
GI50 (SW-620): 3.05 µM (inactive)
GI50 (KM12): 1.82 µM (inactive)
GI50 (SNB-75): 4.04 µM (inactive)
GI50 (BT-549): 4.02 µM (inactive)
GI50 (SN12C): 1.6 µM (inactive)
GI50 (OVCAR-5): 1.77 µM (inactive)
GI50 (SF-539): 2.21 µM (inactive)
GI50 (RPMI-8226): 1.84 µM (inactive)
GI50 (COLO 205): 1.59 µM (inactive)
GI50 (HOP-62): 2.45 µM (inactive)
GI50 (OVCAR-3): 1.38 µM (inactive)

CNC(=S)/C(C#N)=C(\N)N1CCN(C)CC1
GI50 (CCRF-CEM): > 100 µM (inactive)
GI50 (HCC 2998): > 100 µM (inactive)
GI50 (NCI-H226): > 100 µM (inactive)
GI50 (DU-145): > 100 µM (inactive)
GI50 (SK-MEL-5): > 100 µM (inactive)
GI50 (A549): > 100 µM (inactive)
GI50 (TK-10): > 100 µM (inactive)
GI50 (PC-3): > 100 µM (inactive)
GI50 (K562): > 100 µM (inactive)
GI50 (RXF 393): > 100 µM (inactive)
GI50 (NCI-H522): > 100 µM (inactive)
GI50 (SK-OV-3): > 100 µM (inactive)
GI50 (HOP-92): > 100 µM (inactive)
GI50 (SNB-19): > 100 µM (inactive)
GI50 (CAKI-1): > 100 µM (inactive)
GI50 (IGROV-1): > 100 µM (inactive)
GI50 (SK-MEL-2): > 100 µM (inactive)
GI50 (SR): > 100 µM (inactive)
GI50 (ACHN): > 100 µM (inactive)
GI50 (UACC-257): > 100 µM (inactive)
GI50 (A498): > 100 µM (inactive)
GI50 (EKVX): > 100 µM (inactive)
GI50 (MDA-MB-435): > 100 µM (inactive)
GI50 (Malme-3M): > 100 µM (inactive)
GI50 (UACC-62): > 100 µM (inactive)
GI50 (Hs-578T): > 100 µM (inactive)
GI50 (UO-31): > 100 µM (inactive)
GI50 (MOLT-4): > 100 µM (inactive)
GI50 (HT-29): > 100 µM (inactive)
GI50 (M14): > 100 µM (inactive)
GI50 (OVCAR-8): > 100 µM (inactive)
GI50 (MDA-N): > 100 µM (inactive)
GI50 (HCT-116): > 100 µM (inactive)
GI50 (MDA-MB-231): 30.5 µM (inactive)
GI50 (SF-268): > 100 µM (inactive)
GI50 (NCI/ADR-RES): > 100 µM (inactive)
GI50 (HCT-15): > 100 µM
GI50 (HL-60): > 100 µM (inactive)
GI50 (U-251): > 100 µM (inactive)
GI50 (786-0): > 100 µM (inactive)
GI50 (MCF7): > 100 µM (inactive)
GI50 (T47D): > 100 µM (inactive)
GI50 (NCI-H23): > 100 µM (inactive)
GI50 (SF-295): > 100 µM (inactive)
GI50 (SW-620): > 100 µM (inactive)
GI50 (KM12): > 100 µM (inactive)
GI50 (SNB-75): > 100 µM (inactive)
GI50 (BT-549): > 100 µM (inactive)
GI50 (SN12C): > 100 µM (inactive)
GI50 (LOX IMVI): > 100 µM (inactive)
GI50 (OVCAR-5): > 100 µM (inactive)
GI50 (SF-539): > 100 µM (inactive)
GI50 (RPMI-8226): > 100 µM (inactive)
GI50 (COLO 205): > 100 µM (inactive)
GI50 (HOP-62): > 100 µM (inactive)
GI50 (OVCAR-3): > 100 µM (inactive)
